Patent US20260021137A1, “COMPOSITIONS FOR TREATING COLITIS AND/OR PREVENTING COLON CANCER” (Purdue Research Foundation, priority 2020, published 2026)
Marks after values point to notes of the source that are not given here.

How the values were obtained:
gut microbiota = test: Gut microbiota analysis by 16S rRNA gene sequencing of feces; assay type: in vivo, male Balb/c mice; conditions: for modulatory effect on gut microbes as δTE and δTE-13′: unpublished data by Liu and Jiang
Description: DNAs from ^˜30-40 mg fecal samples were isolated using FASTDNA™ SPIN kit for isolating DNA from soil (MP Biomedicals, Solon, Ohio). The quality of the DNAs was assessed by NanoDrop One (260/280 OD ratio) (Thermo Fisher Scientific. Weltham, Mass.) and 0.8% agarose gel electrophoresis. The DNAs were stained with Hoechst 33258 dye and quantities were determined using a NanoDrop 3300 fluorospectrometer (Thermo Fisher Scientific. Weltham, Mass.).
DNA templates (10 ng) were used for two-step polymerase chain reactions (PCRs) using Q5 High Fidelity DNA Polymerase to minimize errors (New England Biolabs, Ipswich, Mass.). The first PCR reaction is to amplify the 16S rRNA V3 and V4 region (^˜460 bp), with forward primer (343-357: 5′ TAC CGR AGG CAG CAG 3′), and a reverse primer (804-790: 5′ CTA CCR GGG TAT CTA ATCC 3′). which is based on primer accuracy and coverage of phylogenetic information that has been determined for short sequencing reads. Four degenerate bases were added to the 1st cycle forward primers to maximize detected microbial diversity and improve the base-calling accuracy of sequencing. The second PCR is to tag the amplicons with unique barcodes using 8-bp tagged forward and reverse primers (Illumina) (support.illumina.com). The number of PCR cycles were 15 in the first step and 5 in the second step to minimize formation of PCR artifacts. After each PCR, unincorporated primers and nucleotides were removed from PCR amplicons using Agencourt AMPure XP kit (Beckman Coulter). The PCR products were evaluated by 1.2% agarose gel and quantified using a NanoDrop 3300 fluorospectrometer after staining with Quantifluor dsDNA Assay Kit (Promega, Madison, Wis.). Amplicons from each sample were combined in equimolar quantities for 250 bp pair-end sequencing using a MiSeq system (Illumina, San Diego, Calif.).
The raw sequencing data were processed on the QIIME2 platform. The quality of the sequences was checked and bases with low-quality scores (Q less than 30) were trimmed. After denoising, merging and chimeric-checking using DADA2, amplicon sequence variants (ASVs) were aligned with the SILVA 132 marker gene reference database. After rarefaction, microbial alpha diversities were computed using observed OTUs, Faith Phylogenetic Diversity (PD), Piclou evenness and Shannon indices. For beta diversities, principal coordinate analysis (PCoA) was performed using Unweighted UniFrac, Weighted UniFrac, Jaccard and Bray Curtis distance matrices. Permutational (non-parametric) multivariate statistic (perMANOVA) and permutation analysis of multivariate dispersions (PERMDISP) were used to determine beta diversity significance. To identify differential abundant taxa, we performed analysis of composition of microbiomes (ANCOM) followed by Kruskal-Wallis to determine pair-wise significance. ANCOM takes into account the compositional nature of the dataset and compares absolute abundance in the community. Furthermore, we used linear discriminant analysis (LDA) effect size (LEfSe) to identify microbial taxa that are enriched by the dietary treatments. The cutoff for LDA was set at 3.5. In addition, canonical correspondence analysis (CCA) in PAST3 (Paleontological statistics) was used to determine correlation between relative abundances (at the species level) of gut microbial communities and environmental variables including AOM/DSS treatment, δTE, δTE-13′, ratio of colon length/weight (L/W) and large-size tumors. Significance of the model for the correlations was calculated using a Monte Carlo test with 999 permutations.
Tumor multiplicity and log transformed tumor area were analyzed by Kruskal-Wallis followed by Mann-Whitney test. Vitamin E and metabolites were compared using Student's t test. For cytokine data, Mann-Whitney test was used to compare two groups including AD vs. non-AD, AD vs. δTE, and AD vs. δTE-13′. PAST 3.24 was used for analysis of Spearman correlation among cytokines and multiple factors. […]

[1] = system: AOM/DSS-induced colon tumorigenesis; conditions: 0.022% diet; previous study; cited from earlier work
[2] = Concentrations of vitamin E forms and metabolites in plasma and feces; assay type: in vivo
Description: Vitamin E forms were extracted as previously described. Briefly, plasma tocopherols and metabolites were extracted using a mixture of methanol/hexane (1/2,v/v) in the presence of butylated hydroxytoluene (BHT; 0.8 mM) and ascorbate (0.2 mg/ml). […] The Journal of Nutritional Biochemistry. 2009;20:894-900. For fecal samples, ˜30 mg feces were smashed and homogenized in 2 ml methanol with BHT (0.8 mM) and ascorbate (0.2 mg/ml). After brief centrifugation, a 1.4 ml methanol layer was obtained and added with 200 μl of PBS, and extracted by 5 ml hexane. For plasma and fecal samples, the hexane and methanol layer were used for quantification of vitamin E forms and metabolites, respectively.
Different vitamin E forms were separated on a 150×4.6 mm, 5 μm SUPELCOSIL™ LC-18-DB column (Supelco, Bellefonte, PA), and eluted with 95/5 (v/v) methanol/0.1M lithium acetate (final 25 mM, pH 4.75) at a flow rate of 1.3 ml/min. Tocopherols and tocotrienols were monitored by coulometric detection (Model Coulochem II, ESA Inc., Chelmsford, MA) at 300 (upstream) and 500 mV (down-stream electrode) using a Model 5011 analytical cell
The detailed LC-MS/MS method for analyzing vitamin E metabolites has been previously reported. See Jiang Q, Xu T, Huang J, Jannasch AS, Cooper B, Yang C. Analysis of vitamin E metabolites including carboxychromanols and sulfated derivatives using LC/MS/MS. J Lipid Res. 2015;56:2217-25. Briefly, vitamin E metabolites were quantified based on external standards with internal standards for correction of injection and extraction. The LC-MS/MS analysis was done with an Agilent1200 liquid chromatography system coupled to an Agilent 6460 QQQ mass spectrometer equipped with a jet stream electrospray ionization (ESI) source (Santa Clara, CA). The chromatography utilized an Atlantis dC18 column (2.1×150 mm, 3 μm) from Water's Corporation (Milford, MA). Buffer A and B consisted of acetonitrile/ethanol/water (165/135/700, v/v/v) and acetonitrile/ethanol/water (539/441/20, v/v/v), respectively. The LC gradient ran at 0.3 ml/min as follows: 0-1 min, 0% B; at 30 min, 99% B; at 35 min, 99% B; at 37 min, 0% B. Negative polarity ESI was used with gas temperature of 325° C., gas flow at 10 L/min, nebulizer pressure at 30 psi, sheath gas temperature of 250° C., sheath gas flow at 7 L/min, capillary voltage at 4000V, nozzle voltage at 1500 V, and an electron multiplier voltage of −300 V. All data were evaluated with Agilent MassHunter Qualitative Analysis software, versionB.01.06.

[3] = Body weight, food intake and organ weight during supplementation; assay type: in vivo, male Balb/c mice; conditions: supplementation for more than two months
Description: The animal use protocol was approved by the Animal Care and Use Committee at Purdue University. After one-weck adaptation, 6-7 weck old male Balb/c mice from Harlan, (Indianapolis, IN) were i.p. injected with AOM at 9.5 mg/kg body weight. A week later, AOM-injected mice were randomized into AIN-93G (control), δTE-supplemented and δTE-13′-supplemented groups. Meanwhile, mice were given 1.5% DSS in drinking water for 1 week. The DSS cycle was repeated after a two-week interval (design outlined in FIG. 1C). During DSS treatment, we evaluated colitis severity by monitoring body weight, food intake, rectal bleeding and stool consistency. Clinical colitis scores were quantified as follows: bleeding, 0=no blood, 1=feces with blood less than 50%, 2=feces with blood more than 50% but less than 100%, and 3=feces with full blood; stool softness, 0=hard, 1=a bit soft, 2=soft, and 3=very soft.

[4] = system: AOM/DSS-induced colon tumorigenesis; test: AOM/DSS-induced colon tumorigenesis in mice; assay type: in vivo, male Balb/c mice; conditions: AOM/DSS-treated mice; δTE/γTE (8/1) 0.035% diet or δTE-13′ 0.04% diet
Description: FIG. 1 illustrates (A) The chemical structures of δTE, γTE and δTE-13′; (B) Metabolism of δTE and δTE-13′; and (C) The study design of AOM/DSS model in mice-Six-seven-week old male Balb/c mice were i.p. injected with AOM at 9.5 mg/kg body weight. A week later, AOM-injected mice were randomized into AIN-93G (control), δTE-supplemented and δTE-13′-supplemented groups. Meanwhile, mice were given 1.5% DSS in drinking water for 1 week. The DSS cycle was repeated after a two-week interval.
δTE-13′ (>92%) used in animal studies was isolated from Garcinia kola seeds based on published procedures. See Jang Y, Park N Y, Rostgaard-Hansen A L, Huang J, Jiang Q. Vitamin E metabolite 13′-carboxychromanols inhibit pro-inflammatory enzymes, induce apoptosis and autophagy in human cancer cells by modulating sphingolipids and suppress colon tumor development in mice. Free Radical Biology & Medicine. 2016;95:190-9. Azoxymethane (AOM) was purchased from Sigma and dextran sodium sulfate (DSS, Mw36,000-50,000 Da) was from MP Biochemicals (Solon, OH). δTE/γTE (8/1) was a gift from American River Nutrition (Hadley, MA). AIN-93G diet was used as the control diet. […]
The animal use protocol was approved by the Animal Care and Use Committee at Purdue University. […] During DSS treatment, we evaluated colitis severity by monitoring body weight, food intake, rectal bleeding and stool consistency. Clinical colitis scores were quantified as follows: bleeding, 0=no blood, 1=feces with blood less than 50%, 2=feces with blood more than 50% but less than 100%, and 3=feces with full blood; stool softness, 0=hard, 1=a bit soft, 2=soft, and 3=very soft.
During tissue harvest, colons were removed, rinsed with cold PBS, cut open longitudinally, and macroscopically examined. The size and number of macroscopic tumors were measured and recorded. […]
Tumor multiplicity and log transformed tumor area were analyzed by Kruskal-Wallis followed by Mann-Whitney test. […]

GM-CSF = test: Multiplex cytokine assay in colon homogenates: GM-CSF; assay type: in vivo, male Balb/c mice; conditions: AOM/DSS-treated mice, vs control diet
Description: (§1) Colon tissues were homogenized with POLYTRON® homogenizer (Kinematica AG, Switzerland) on ice in the lysis buffer consisting of 150 mM NaCl, 1 mM EDTA (pH 8.0), 20 mM Tris (pH 7.5), 0.5% Tween 20, 10 uM indomethacin (Cayman), and 1× protease inhibitor cocktail (Sigma). Protein concentrations in tissue homogenates were quantified by BCA assay. The concentrations of selected cytokines were analyzed using a Mouse Cytokine Array Proinflammatory Focused 10-Plex Discovery Assay by Eve Technologies (Calgary, AB Canada). The 10-Plex Discovery Assay includes IFNγ, IL-1β, GM-CSF, IL-2, IL-4, IL-6, IL-10, IL-12p70, MCP-1 and TNFα.
(§2) Tumor multiplicity and log transformed tumor area were analyzed by Kruskal-Wallis followed by Mann-Whitney test. Vitamin E and metabolites were compared using Student's t test. For cytokine data, Mann-Whitney test was used to compare two groups including AD vs. non-AD, AD vs. δTE, and AD vs. δTE-13′. PAST 3.24 was used for analysis of Spearman correlation among cytokines and multiple factors. For correlation analysis of gut microbiota and δTE-13′, Spearman correlation tests were performed using RStudio 1.1.456 and adjusted with Benjamini-Hochberg correction to control the false discovery rate for multiple testing. Other statistical analyses are described in figure captions.

MCP-1 = test: Multiplex cytokine assay in colon homogenates: MCP-1; assay type: in vivo, male Balb/c mice; conditions: AOM/DSS-treated mice, vs control diet
Description: as §1, §2

[5] = ANCOM, compared with control diet in AD-treated or healthy mice
[6] = LEfSe, LDA cutoff 3.5, AOM/DSS-treated mice
[7] = fecal microbiota, AOM/DSS-treated mice, mean ± SEM

Cc1c(O)cc2c(c1C)O[C@](C)(CCC[C@H](C)CCC[C@H](C)CCCC(C)C)CC2 [γT, γ-tocopherol, reference compound]
modulatory effect on gut microbes as δTE and δTE-13′ (gut microbiota): do not share the same modulatory effect

Cc1c(C)c2c(c(C)c1O)CC[C@@](C)(CCC[C@H](C)CCC[C@H](C)CCCC(C)C)O2 [αT, α-tocopherol, reference compound]
modulatory effect on gut microbes as δTE and δTE-13′ (gut microbiota): do not share the same modulatory effect

C/C(=C\CC/C(C)=C/CCC1(C)CCc2cc(O)cc(C)c2O1)CC/C=C(\C)C(=O)O (centres unmarked) [δTE-13′, δTE-13′-carboxychromanol]
large-size tumor multiplicity [1]: significantly suppressed | total tumor multiplicity [1]: significantly suppressed | parental compound in the plasma ([2]; δTE-13′ supplementation): did not result in detectable amount | δTE-13′ with 3 DB (the parental compound) in feces ([2]; δTE-13′ supplementation): increased | fecal δTE-13′ with 2 DB relative to that from δTE ([2]; δTE-13′ vs δTE supplementation): significantly higher | plasma concentrations of metabolites relative to those from δTE ([2]; δTE-13′ vs δTE supplementation): about twice as much | AOM/DSS-associated decrease of genus Roseburia (gut microbiota; ANCOM, relative abundance): partially reversed | relative abundance of Streptococccaceae family (gut microbiota; [5]): significantly elevated | relative abundance of genus Lactococcus (gut microbiota; [5]): significantly elevated | Bacteroides (LEfSe) (gut microbiota; [6]): enriched | Parabacteroides goldsteinii CL02T12C30 (LEfSe) (gut microbiota; [6]): enriched | ratio of Firmicutes to Bacteroidetes in feces (gut microbiota; compared with healthy controls): appeared to decrease | alpha diversity: Evenness (gut microbiota; [7]): 0.81 ± 0.01^b | alpha diversity: Faith PD (gut microbiota; [7]): 10.42 ± 0.24^a | alpha diversity: Observed OTU (gut microbiota; [7]): 177.06 ± 8.75^a | alpha diversity: Shannon (gut microbiota; [7]): 6.05 ± 0.07^a | effect on animals' body weight [3]: did not affect | effect on food intake [3]: did not affect | effect on organ weight [3]: did not affect | decrease of large size (>2 mm^2) polyps compared with control diet [4]: 55% | decrease of total polyps (total tumor multiplicity) compared with control diet [4]: 25% | decrease of tumor surface area [4]: 38% | AOM/DSS-induced GM-CSF in colon homogenates (GM-CSF): significant reduction | AOM/DSS-induced MCP-1 in colon homogenates (MCP-1): significant reduction
